Measurements from ChEMBL document CHEMBL5104202, “Structure-Uptake Relationship Studies of Oxazolidinones in Gram-Negative ESKAPE Pathogens” (J Med Chem, 2022).

Experiments:
Format in all cases: functional, organism-based
Escherichia coli [1] = assay: Antibacterial activity against efflux pump lacking/recombinant OM pore producing Escherichia coli assessed as inhibition of bacterial growth
Acinetobacter baumannii [2] = assay: Antibacterial activity against efflux pump lacking Acinetobacter baumannii assessed as inhibition of bacterial growth
Acinetobacter baumannii [3] = assay: Antibacterial activity against recombinant OM pore producing Acinetobacter baumannii assessed as inhibition of bacterial growth
Pseudomonas aeruginosa [4] = assay: Antibacterial activity against wild type Pseudomonas aeruginosa assessed as inhibition of bacterial growth
Pseudomonas aeruginosa [5] = assay: Antibacterial activity against efflux pump lacking Pseudomonas aeruginosa assessed as inhibition of bacterial growth
Escherichia coli [6] = assay: Antibacterial activity against wild type Escherichia coli assessed as inhibition of bacterial growth
Acinetobacter baumannii [7] = assay: Antibacterial activity against efflux pump lacking/recombinant OM pore producing Acinetobacter baumannii assessed as inhibition of bacterial growth
Pseudomonas aeruginosa [8] = assay: Antibacterial activity against efflux pump lacking/recombinant OM pore producing Pseudomonas aeruginosa assessed as inhibition of bacterial growth
Acinetobacter baumannii [9] = assay: Antibacterial activity against wild type Acinetobacter baumannii assessed as inhibition of bacterial growth
Pseudomonas aeruginosa [10] = assay: Antibacterial activity against recombinant OM pore producing Pseudomonas aeruginosa assessed as inhibition of bacterial growth
Escherichia coli [11] = assay: Antibacterial activity against recombinant OM pore producing Escherichia coli assessed as inhibition of bacterial growth
Escherichia coli [12] = assay: Antibacterial activity against efflux pump lacking Escherichia coli assessed as inhibition of bacterial growth

In the case of `COC(=O)c1ccccc1-c1ccc(N2C[C@H](CO)OC2=O)cc1F`, the IC50 (Escherichia coli [1]) is reported as 39.7 µM, the IC50 (Acinetobacter baumannii [2]) is reported as greater than 100 µM and the IC50 (Acinetobacter baumannii [3]) is reported as greater than 100 µM. The IC50 (Pseudomonas aeruginosa [4]) was greater than 100 µM, the IC50 (Pseudomonas aeruginosa [5]) was greater than 100 µM and the IC50 (Escherichia coli [6]) was 96 µM. For the same compound, the IC50 (Acinetobacter baumannii [7]) was greater than 100 µM, the IC50 (Pseudomonas aeruginosa [8]) was greater than 100 µM and the IC50 (Acinetobacter baumannii [9]) was greater than 100 µM. It also gave an IC50 (Pseudomonas aeruginosa [10]) greater than 100 µM, an IC50 (Escherichia coli [11]) of 61.5 µM and an IC50 (Escherichia coli [12]) of 64.6 µM.
`COc1ccc(CNC(=O)OC(C)(C)C)cc1OCC#Cc1ccc(N2C[C@H](CO)OC2=O)cc1F` showed an IC50 (Escherichia coli [1]) of 44.4 µM, an IC50 (Acinetobacter baumannii [2]) of 72.2 µM and an IC50 (Acinetobacter baumannii [3]) of 42.4 µM. For the same compound, the IC50 (Pseudomonas aeruginosa [4]) was greater than 100 µM, the IC50 (Pseudomonas aeruginosa [5]) was greater than 100 µM and the IC50 (Escherichia coli [6]) was greater than 100 µM. The IC50 (Acinetobacter baumannii [7]) was 28.7 µM, the IC50 (Pseudomonas aeruginosa [8]) was 46.9 µM and the IC50 (Acinetobacter baumannii [9]) was greater than 100 µM. For the same compound, the IC50 (Pseudomonas aeruginosa [10]) was greater than 100 µM, the IC50 (Escherichia coli [11]) was greater than 100 µM and the IC50 (Escherichia coli [12]) was 42.9 µM.
In the case of `NCC#Cc1ccc(N2C[C@H](CO)OC2=O)cc1F`, the IC50 (Escherichia coli [1]) is reported as greater than 100 µM, the IC50 (Acinetobacter baumannii [2]) is reported as greater than 100 µM and the IC50 (Acinetobacter baumannii [3]) is reported as greater than 100 µM. It also gave an IC50 (Pseudomonas aeruginosa [4]) greater than 100 µM, an IC50 (Pseudomonas aeruginosa [5]) greater than 100 µM and an IC50 (Escherichia coli [6]) greater than 100 µM. For the same compound, the IC50 (Acinetobacter baumannii [7]) was greater than 100 µM, the IC50 (Pseudomonas aeruginosa [8]) was greater than 100 µM and the IC50 (Acinetobacter baumannii [9]) was greater than 100 µM. The IC50 (Pseudomonas aeruginosa [10]) was greater than 100 µM, the IC50 (Escherichia coli [11]) was greater than 100 µM and the IC50 (Escherichia coli [12]) was greater than 100 µM.
`COC(=O)Cn1cc(C#Cc2ccc(N3C[C@H](CO)OC3=O)cc2F)cn1` showed an IC50 (Escherichia coli [1]) of 36.6 µM, an IC50 (Acinetobacter baumannii [2]) greater than 100 µM and an IC50 (Acinetobacter baumannii [3]) greater than 100 µM. For the same compound, the IC50 (Pseudomonas aeruginosa [4]) was greater than 100 µM, the IC50 (Pseudomonas aeruginosa [5]) was greater than 100 µM and the IC50 (Escherichia coli [6]) was greater than 100 µM. The IC50 (Acinetobacter baumannii [7]) was 62 µM, the IC50 (Pseudomonas aeruginosa [8]) was greater than 100 µM and the IC50 (Acinetobacter baumannii [9]) was greater than 100 µM. The IC50 (Pseudomonas aeruginosa [10]) was greater than 100 µM, the IC50 (Escherichia coli [11]) was 52.3 µM and the IC50 (Escherichia coli [12]) was 88.7 µM.
For `O=Cc1ccc(-c2ccc(N3C[C@H](CO)OC3=O)cc2F)cc1`, the IC50 (Escherichia coli [1]) was 0.5 µM, the IC50 (Acinetobacter baumannii [2]) was 1.1 µM and the IC50 (Acinetobacter baumannii [3]) was 16.9 µM. It also gave an IC50 (Pseudomonas aeruginosa [4]) greater than 100 µM, an IC50 (Pseudomonas aeruginosa [5]) of 1.1 µM and an IC50 (Escherichia coli [6]) of 66.8 µM. It also gave an IC50 (Acinetobacter baumannii [7]) of 1.2 µM, an IC50 (Pseudomonas aeruginosa [8]) of 0.02 µM and an IC50 (Acinetobacter baumannii [9]) of 18.4 µM. The IC50 (Pseudomonas aeruginosa [10]) was 5.9 µM, the IC50 (Escherichia coli [11]) was 5 µM and the IC50 (Escherichia coli [12]) was 0.6 µM.
`O=C1O[C@@H](CO)CN1c1ccc(-c2ccc(O)cc2)c(F)c1` showed an IC50 (Escherichia coli [1]) of 2.3 µM, an IC50 (Acinetobacter baumannii [2]) of 8.4 µM and an IC50 (Acinetobacter baumannii [3]) of 12.9 µM. The IC50 (Pseudomonas aeruginosa [4]) was greater than 100 µM, the IC50 (Pseudomonas aeruginosa [5]) was 8.4 µM and the IC50 (Escherichia coli [6]) was greater than 100 µM. For the same compound, the IC50 (Acinetobacter baumannii [7]) was 7.3 µM, the IC50 (Pseudomonas aeruginosa [8]) was 5.8 µM and the IC50 (Acinetobacter baumannii [9]) was greater than 100 µM. It also gave an IC50 (Pseudomonas aeruginosa [10]) of 27.7 µM, an IC50 (Escherichia coli [11]) of 22.1 µM and an IC50 (Escherichia coli [12]) of 2 µM.
With `CC(=O)N1CCN(CC#Cc2ccc(N3C[C@H](CO)OC3=O)cc2F)CC1` the IC50 (Escherichia coli [1]) was greater than 100 µM, the IC50 (Acinetobacter baumannii [2]) was greater than 100 µM and the IC50 (Acinetobacter baumannii [3]) was greater than 100 µM. It also gave an IC50 (Pseudomonas aeruginosa [4]) greater than 100 µM, an IC50 (Pseudomonas aeruginosa [5]) greater than 100 µM and an IC50 (Escherichia coli [6]) greater than 100 µM. It also gave an IC50 (Acinetobacter baumannii [7]) greater than 100 µM, an IC50 (Pseudomonas aeruginosa [8]) greater than 100 µM and an IC50 (Acinetobacter baumannii [9]) greater than 100 µM. It also gave an IC50 (Pseudomonas aeruginosa [10]) greater than 100 µM, an IC50 (Escherichia coli [11]) greater than 100 µM and an IC50 (Escherichia coli [12]) greater than 100 µM.
`Cc1nn(C)c(C)c1C#Cc1ccc(N2C[C@H](CO)OC2=O)cc1F` showed an IC50 (Escherichia coli [1]) of 3.4 µM, an IC50 (Acinetobacter baumannii [2]) greater than 100 µM and an IC50 (Acinetobacter baumannii [3]) greater than 100 µM. It also gave an IC50 (Pseudomonas aeruginosa [4]) greater than 100 µM, an IC50 (Pseudomonas aeruginosa [5]) greater than 100 µM and an IC50 (Escherichia coli [6]) greater than 100 µM. For the same compound, the IC50 (Acinetobacter baumannii [7]) was greater than 100 µM, the IC50 (Pseudomonas aeruginosa [8]) was greater than 100 µM and the IC50 (Acinetobacter baumannii [9]) was greater than 100 µM. It also gave an IC50 (Pseudomonas aeruginosa [10]) greater than 100 µM, an IC50 (Escherichia coli [11]) of 1.2 µM and an IC50 (Escherichia coli [12]) of 86.3 µM.
For `O=C1O[C@@H](CO)CN1c1ccc(-c2ccccn2)c(F)c1`, the IC50 (Escherichia coli [1]) was 79.6 µM, the IC50 (Acinetobacter baumannii [2]) was greater than 100 µM and the IC50 (Acinetobacter baumannii [3]) was greater than 100 µM. It also gave an IC50 (Pseudomonas aeruginosa [4]) greater than 100 µM, an IC50 (Pseudomonas aeruginosa [5]) of 64.2 µM and an IC50 (Escherichia coli [6]) greater than 100 µM. For the same compound, the IC50 (Acinetobacter baumannii [7]) was greater than 100 µM, the IC50 (Pseudomonas aeruginosa [8]) was 47.4 µM and the IC50 (Acinetobacter baumannii [9]) was greater than 100 µM. It also gave an IC50 (Pseudomonas aeruginosa [10]) greater than 100 µM, an IC50 (Escherichia coli [11]) greater than 100 µM and an IC50 (Escherichia coli [12]) of 76.8 µM.
Work on `O=C1O[C@@H](CO)CN1c1ccc(-c2ccc3ccncc3c2)c(F)c1` yielded an IC50 (Escherichia coli [1]) greater than 100 µM, an IC50 (Acinetobacter baumannii [2]) greater than 100 µM and an IC50 (Acinetobacter baumannii [3]) greater than 100 µM. It also gave an IC50 (Pseudomonas aeruginosa [4]) greater than 100 µM, an IC50 (Pseudomonas aeruginosa [5]) greater than 100 µM and an IC50 (Escherichia coli [6]) greater than 100 µM. For the same compound, the IC50 (Acinetobacter baumannii [7]) was greater than 100 µM, the IC50 (Pseudomonas aeruginosa [8]) was 0.1 µM and the IC50 (Acinetobacter baumannii [9]) was greater than 100 µM. The IC50 (Pseudomonas aeruginosa [10]) was greater than 100 µM, the IC50 (Escherichia coli [11]) was greater than 100 µM and the IC50 (Escherichia coli [12]) was greater than 100 µM.
